For orientation: IC50 means the concentration at which inhibition is half-maximal. As a reminder, the viability is a read-out of living cells in per cent, often relative to untreated cells.

Data on two molecules can be found in publication PMC12299904, “Purine–Hydrazone Scaffolds as Potential Dual EGFR/HER2 Inhibitors” (Pharmaceuticals, 2025).

Data set [1] can be described thus: In vitro cytotoxicity assay (MTT), normal cell line MRC-5. The data set is classed as cell-based. The settings on record: MRC-5 normal embryonic lung cells, normal human embryonic lung cell line, mean ± SD. The protocol: (§1) Cells were passaged regularly at around 80% confluency using […] and maintained in 75 cm^2 flasks at 37 °C in a humidified atmosphere containing 5% CO2.
(§2) Approximately 10 × 10^3 cells were seeded per well of the 96-well plates using drug-free media and incubated for 24 h. […] After 48 h of drug exposure, the supernatant was aspirated, and the cells were washed with 100 μL of PBS. The MTT assay was performed by creating a stock solution of MTT at a concentration of 5 mg/mL in PBS. From this stock, a solution of MTT in the cell culture media was prepared to achieve a final concentration of 0.5 mg/mL. […] The MTT solution was thereafter removed, and the generated formazan crystals were dissolved by adding 100 μL of propanol/DMSO (50:50) per well. Absorbance was measured at 570 nm, and IC50 values for each compound were calculated by comparison against negative untreated controls.

The test system of the next data set is A2780 cells. Put plainly: In vitro cytotoxicity assay (MTT), A2780. The data set is classed as cell-based. Particulars: Homo sapiens, 48 h, read-out: percentage of cell viability, A2780.
In another data set the test system is A549 cells. Put plainly: In vitro cytotoxicity assay (MTT), A549. The settings on record: for IC50: mean ± SD, three experiments. The protocol: (§3) The selected cell lines include A549, a lung cancer cell line that is characterized by its high expression of EGFR; SKOV-3, an ovarian cancer cell line, selected for its overexpression of both EGFR and HER2; and the breast cancer cell line (SKBR-3), characterized by HER2 overexpression.
as §1, §2

The subject of a further data set is SKBR-3 cells. Put plainly: In vitro cytotoxicity assay (MTT), SKBR-3. The data set is classed as cell-based, human. Particulars: for IC50: MTT, 48 h, mean ± SD, three experiments. The protocol: as §3, §1, §2
A further data set deals with T1, HER2 (Homo sapiens, UniProt P04626).
T1 construct: purchased BPS Bioscience 40721
T1 sequence (P04626 23-1255): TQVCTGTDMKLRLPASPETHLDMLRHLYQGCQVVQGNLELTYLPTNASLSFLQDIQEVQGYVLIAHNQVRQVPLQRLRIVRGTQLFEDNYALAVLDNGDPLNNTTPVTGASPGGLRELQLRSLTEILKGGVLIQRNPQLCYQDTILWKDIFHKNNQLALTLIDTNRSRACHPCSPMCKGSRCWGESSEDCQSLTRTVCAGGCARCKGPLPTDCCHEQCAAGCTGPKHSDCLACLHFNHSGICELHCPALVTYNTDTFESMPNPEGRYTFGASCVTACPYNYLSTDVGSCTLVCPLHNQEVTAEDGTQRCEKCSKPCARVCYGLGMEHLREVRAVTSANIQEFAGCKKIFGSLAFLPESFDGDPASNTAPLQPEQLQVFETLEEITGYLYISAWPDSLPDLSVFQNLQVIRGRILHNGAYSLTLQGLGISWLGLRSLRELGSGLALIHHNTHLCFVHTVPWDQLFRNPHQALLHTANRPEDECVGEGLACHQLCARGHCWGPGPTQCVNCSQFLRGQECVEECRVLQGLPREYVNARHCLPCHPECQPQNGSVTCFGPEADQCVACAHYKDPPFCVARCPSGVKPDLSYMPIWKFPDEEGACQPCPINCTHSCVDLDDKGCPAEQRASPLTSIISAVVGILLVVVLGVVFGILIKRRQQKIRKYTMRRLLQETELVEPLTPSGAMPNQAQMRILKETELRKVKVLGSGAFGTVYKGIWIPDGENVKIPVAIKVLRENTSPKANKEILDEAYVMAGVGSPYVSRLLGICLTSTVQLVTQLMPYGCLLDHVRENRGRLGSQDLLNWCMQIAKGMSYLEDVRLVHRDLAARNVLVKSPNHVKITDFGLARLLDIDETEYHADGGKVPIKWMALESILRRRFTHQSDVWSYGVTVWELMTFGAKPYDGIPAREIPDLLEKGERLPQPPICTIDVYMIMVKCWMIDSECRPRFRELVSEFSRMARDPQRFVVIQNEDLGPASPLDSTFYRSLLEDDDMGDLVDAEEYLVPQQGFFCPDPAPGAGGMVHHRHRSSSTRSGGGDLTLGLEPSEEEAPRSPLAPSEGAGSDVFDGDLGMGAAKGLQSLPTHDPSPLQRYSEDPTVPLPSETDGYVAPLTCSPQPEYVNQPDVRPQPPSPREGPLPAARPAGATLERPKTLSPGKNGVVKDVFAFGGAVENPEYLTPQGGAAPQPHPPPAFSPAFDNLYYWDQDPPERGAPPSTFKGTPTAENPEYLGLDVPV
Briefly: In vitro enzyme inhibition assay, HER2 Kinase Assay Kit (BPS Bioscience). The data set is classed as biochemical. Particulars: three independent experiments; read-out: Protein Kinase Inhibition IC50, HER2.

The next data set relates to SKOV-3 cells. Briefly: In vitro cytotoxicity assay (MTT), SKOV-3. The data set is classed as cell-based, human. The settings on record: for IC50: mean ± SD, three experiments. The protocol:
as §3, §1, §2

The next data set addresses T2, EGFR (Homo sapiens, UniProt P00533).
T2 construct: purchased BPS Bioscience 40321
Put plainly: In vitro enzyme inhibition assay, EGFR Kinase Assay Kit (BPS Bioscience). The data set is classed as biochemical. The settings on record: three independent experiments; read-out: Protein Kinase Inhibition IC50, EGFR.

The subject of data set [2] is A549, SKOV-3, A2780, SKBR-3 cells. Put plainly: MTT assay, ranges stated over several cell lines. The data set is classed as cell-based, human. The protocol: as §3, §1, §2
A general note: Formazan colour is commonly taken as a measure of viable cells.

Values joined by “and” are separate entries in the source; they are usually repeats but may differ in a detail not shown here. Equal entries are not always repeated. Where two headings read alike, the source gives them in different places.

T2 sequence (P00533 25-1210): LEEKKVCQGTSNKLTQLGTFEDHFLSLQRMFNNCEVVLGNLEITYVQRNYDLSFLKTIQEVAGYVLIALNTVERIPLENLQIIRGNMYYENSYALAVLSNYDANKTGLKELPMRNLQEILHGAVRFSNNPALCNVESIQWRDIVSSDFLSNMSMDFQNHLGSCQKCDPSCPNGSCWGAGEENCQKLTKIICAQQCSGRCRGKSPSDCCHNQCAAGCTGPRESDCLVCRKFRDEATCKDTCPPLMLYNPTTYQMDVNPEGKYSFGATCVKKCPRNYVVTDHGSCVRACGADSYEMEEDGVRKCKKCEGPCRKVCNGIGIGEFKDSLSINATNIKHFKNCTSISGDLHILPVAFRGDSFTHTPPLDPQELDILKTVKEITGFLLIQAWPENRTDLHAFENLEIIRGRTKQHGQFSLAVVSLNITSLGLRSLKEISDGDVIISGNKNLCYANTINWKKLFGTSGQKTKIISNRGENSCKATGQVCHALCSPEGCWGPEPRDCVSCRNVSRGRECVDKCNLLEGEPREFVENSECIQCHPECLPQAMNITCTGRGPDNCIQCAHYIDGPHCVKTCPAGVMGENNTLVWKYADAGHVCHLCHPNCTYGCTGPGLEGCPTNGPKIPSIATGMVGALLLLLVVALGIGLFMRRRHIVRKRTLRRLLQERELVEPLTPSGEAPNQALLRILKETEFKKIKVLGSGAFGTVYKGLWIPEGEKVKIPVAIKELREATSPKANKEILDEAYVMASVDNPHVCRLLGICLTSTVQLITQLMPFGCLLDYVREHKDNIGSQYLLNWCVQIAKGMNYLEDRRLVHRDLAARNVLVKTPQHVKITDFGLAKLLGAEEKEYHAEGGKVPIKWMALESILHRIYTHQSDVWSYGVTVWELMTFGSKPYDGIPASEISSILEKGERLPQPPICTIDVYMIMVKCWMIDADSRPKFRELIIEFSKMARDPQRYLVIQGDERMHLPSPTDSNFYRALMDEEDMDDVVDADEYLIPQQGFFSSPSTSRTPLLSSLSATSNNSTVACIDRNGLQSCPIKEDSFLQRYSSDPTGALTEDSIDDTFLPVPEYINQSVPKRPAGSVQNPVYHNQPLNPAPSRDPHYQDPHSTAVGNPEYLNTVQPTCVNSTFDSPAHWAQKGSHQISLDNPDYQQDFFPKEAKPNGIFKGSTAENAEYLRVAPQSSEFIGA

In data set [1], `O=C(N/N=C/c1cccc(C(F)(F)F)c1)c1ccc(Nc2ncnc3c2ncn3C2CCCC2)cc1` [16b, (E)-4-((9-cyclopentyl-9H-purin-6-yl)amino)-N′-(3-(trifluoromethyl)benzylidene) benzohydrazide] came in with an IC50 at 48 h of 36650 ± 200 nM. Besides, the viability at 10 µM came out at 16% in the data set on A2780 cells; 27% in the data set on A549 cells (Homo sapiens, A549, 48 h, read-out: percentage of cell viability, A549); 26% with SKOV-3 cells (Homo sapiens, SK-OV-3, 10 µM, 48 h, MTT, read-out: percentage of cell viability, SKOV-3). In addition, the IC50 amounted to 2600 ± 350 nM in the data set with A549 cells (Homo sapiens, A549, 48 h, read-out: Cytotoxicity (IC50), A549, MTT, 48 h); 2600 ± 351 nM in the data set on A549 cells (read-out: Cytotoxicity (IC50), A549, MTT, 48 h); 4300 ± 940 nM in the data set with SKBR-3 cells (Homo sapiens, SK-BR-3, 48 h); 4310 ± 948 nM with SKBR-3 cells; 45 ± 10 nM on HER2; 1970 ± 70 nM in the data set with SKOV-3 cells (Homo sapiens, SK-OV-3, 48 h, MTT, 48 h). Besides, the IC50 with SKOV-3 cells (MTT, 48 h) was 1980 ± 70 nM; at EGFR, 60 nM and 62 nM. In addition, the “Selectivity index (SI), A549” value with A549 cells (IC50 against MRC-5/IC50 against A549) was 14.07. For the same molecule, the “Selectivity index (SI), SKBR-3” value in the data set with SKBR-3 cells (IC50 against MRC-5/IC50 against SKBR-3) came to 8.51. The “Selectivity index (SI), SKOV-3” value in the data set with SKOV-3 cells (IC50 against MRC-5/IC50 against SKOV-3) is recorded as 18.55. In data set [2] (IC50 MRC-5/IC50 cancer cell line, A549, SKOV-3, SKBR-3), the “Selectivity index (SI) range across cancer cell lines” value is reported as 8.51–18.55.
Regarding `COc1cc(C)c(/C=N/NC(=O)c2ccc(Nc3ncnc4c3ncn4C3CCCC3)cc2)cc1C` [18b, (E)-4-((9-cyclopentyl-9H-purin-6-yl)amino)-N′-(4-methoxy-2,5-dimethylbenzylidene) benzohydrazide], in data set [2] (Homo sapiens, 10 µM, 48 h, A549 and SKOV-3, read-out: cell viability range for A549 and SKOV-3), the viability at 10 µM fell in the range of 81 to 100%.
